Assay type in all cases: cell-based
One experiment concerns the target T1, Caspase6 (Homo sapiens, UniProt P55212).
T1 construct: each full-length Caspase construct was expressed (for Caspases-1, 2, 3, 4, 5, 6, 7, and 9) at high levels; HA (N); expressed in transfected cells; host or cells: Saccharomyces cerevisiae (EGY48)
T1 sequence (P55212 1-293): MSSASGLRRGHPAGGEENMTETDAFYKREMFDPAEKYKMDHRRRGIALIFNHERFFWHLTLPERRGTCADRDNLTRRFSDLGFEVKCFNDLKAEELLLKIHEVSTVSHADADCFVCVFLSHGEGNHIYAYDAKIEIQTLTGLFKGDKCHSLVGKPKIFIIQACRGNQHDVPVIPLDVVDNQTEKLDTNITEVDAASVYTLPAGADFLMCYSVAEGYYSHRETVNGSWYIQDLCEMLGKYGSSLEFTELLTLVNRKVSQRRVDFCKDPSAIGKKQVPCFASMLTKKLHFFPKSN
Put plainly: yeast 384 well β-galactosidase reporter assay, Caspase6. The settings on record: Caspase6 in yeast, 384 well β-galactosidase activity assay. An excerpt:
(§1) When converting the yeast-based protease reporter system to HTS assay, conditions from agar plates to liquid medium in microtiter wells must be revised. This revision comprises, utilizing the measured β-galactosidase produced by yeast carrying the Caspase-cleavable reporter proteins, and assaying the colorimetric product (OD620nm) derived from X-gal substrate in 384 well plates, as a measure of the lacZ reporter gene activity. We compared β-galactosidase activity produced in the presence or absence of the broad-spectrum caspase inhibitory compound, zVAD-fmk ([…]-Valinyl-Alaninyl-Aspartyl-fluoromethylketone). […] Note that it was determined that it is not advisible to employ glucose in yeast media because it represses the GAL1 promoter used in some plasmids. […]
(§2) Yeast expressing various Caspases alone (at high levels) or in combination with upstream activators (at low levels) and cleavable substrates containing appropriate tetrapeptides reorganized by these proteases were used in 384 well β-galactosidase activity assays to assess inhibition by zVAD-fmk. The compound was titrated into assays at various concentrations and percentage inhibition was determined.
(§3) Assays were performed in a total volume of […] in triplicate. […] Absorbance at 620 nm was measured 2-3 days after culture at 30° C.

The target in experiment [1] is T2, Caspase9 activated with Apaf* (Homo sapiens, UniProt P55211).
T2 construct: Caspase (all full-length zymogen proforms) expression plasmids; HA (N); expressed in transfected cells; host or cells: Saccharomyces cerevisiae EGY48
T2 sequence (P55211 1-416): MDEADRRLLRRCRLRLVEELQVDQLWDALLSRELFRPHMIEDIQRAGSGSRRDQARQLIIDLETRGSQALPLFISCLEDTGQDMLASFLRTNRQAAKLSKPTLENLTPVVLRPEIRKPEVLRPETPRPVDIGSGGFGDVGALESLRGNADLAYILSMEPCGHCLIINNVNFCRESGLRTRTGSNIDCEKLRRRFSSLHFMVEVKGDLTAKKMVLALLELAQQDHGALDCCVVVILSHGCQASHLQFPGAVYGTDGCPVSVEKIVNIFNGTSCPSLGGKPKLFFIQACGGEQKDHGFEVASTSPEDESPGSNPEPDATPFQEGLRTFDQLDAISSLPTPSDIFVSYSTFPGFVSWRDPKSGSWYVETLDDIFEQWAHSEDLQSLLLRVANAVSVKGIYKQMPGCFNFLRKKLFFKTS
Briefly: yeast 384 well β-galactosidase reporter assay, Caspase9 activated with Apaf*. As to conditions: Caspase9 activated with Apaf* in yeast, 384 well β-galactosidase activity assay.
Description: as §1, §2, §3
(In general: A reporter such as luciferase makes a cellular process visible.)

The next experiment deals with T3, Caspase1 (Homo sapiens, UniProt P29466).
T3 construct: each full-length Caspase construct was expressed (for Caspases-1, 2, 3, 4, 5, 6, 7, and 9) at high levels; FLAG (C); HA (N); expressed in transfected cells; host or cells: Saccharomyces cerevisiae (EGY48)
T3 sequence (P29466 1-404): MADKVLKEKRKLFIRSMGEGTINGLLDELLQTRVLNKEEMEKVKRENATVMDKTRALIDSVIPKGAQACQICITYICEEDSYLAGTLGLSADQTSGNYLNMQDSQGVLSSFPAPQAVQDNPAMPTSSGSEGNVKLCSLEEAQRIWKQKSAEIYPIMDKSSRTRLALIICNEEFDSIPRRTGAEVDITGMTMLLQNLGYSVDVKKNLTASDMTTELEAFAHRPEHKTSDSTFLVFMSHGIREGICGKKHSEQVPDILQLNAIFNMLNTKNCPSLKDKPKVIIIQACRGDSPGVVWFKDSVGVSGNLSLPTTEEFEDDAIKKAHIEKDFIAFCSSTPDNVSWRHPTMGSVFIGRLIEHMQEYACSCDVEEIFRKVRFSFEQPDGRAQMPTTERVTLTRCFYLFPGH
Put plainly: yeast 384 well β-galactosidase reporter assay, Caspase1 expressed alone. The settings on record: Caspase1 in yeast, 384 well β-galactosidase activity assay.
Description: as §1, §2, §3

In general, IC50 refers to the midpoint of a concentration-inhibition curve. Turning to “benzoyl-Valinyl-Alaninyl-Aspartyl-fluoromethylketone [zVAD-fmk]”, the IC50 at Caspase6 came to 6.78 µM; in experiment [1], 10.7 µM; at Caspase1 it was 3.07 µM.
